Measurements from patent US8703744B2, “Cholesterol level lowering liposomes” (priority 2009, dated 2014).

System: Huh7.5 cells
Experiment: Uptake of rh-PE-labeled 22:6 ER liposomes into Huh7.5 cells in the presence of drugs that up- and down-regulate LDLr expression
Assay type: cell-based, human
Settings: 10 μM, 24 h pre-treatment, then 50 μM rhodamine-labeled 22:6 ER liposomes for 24 h
Procedure: Liposomes were prepared as described in US patent publication no. 20090252785 and included 1% (total moles) of rh-PE for monitoring their uptake in cells. JC-1-infected (MOI=0.5) or uninfected Huh7.5 cells were seeded in 6 well plates at a density of 3×10^5 cell/well in 2 ml of complete DMEM/10% FCS medium. Cells were either pre-treated or not with 1 μM and 10 μM squalestatin (SQ, Sigma) or 25-hydroxycholesterol (25-HC, Sigma) for 24 h in serum-free complete DMEM. Following the 24 h pre-incubation, rh-labeled liposomes were added to a final lipid concentration of 50 μM, and left to incubate for a further 24 h. Following incubation times, cells were washed twice in 1×PBS, detached, counted, and resuspended in 200 μl 1×PBS/1% Triton® X-100 before being transferred to a 96 well plate to read in a spectrofluorometer at λex=550 nm, Xem=590 nm.
22:6 ER liposomes (final lipid concentration of 50 μM), labeled with 1% rh-PE in the lipid bilayer, were then added to cells and left to incubate a further 24 h. Cells were then harvested, counted, and rh-PE fluorescence was measured at λex=550 nm, Xem=590 nm. All data represent the mean and SD of triplicates from three independent experiments. Data are presented in relation to the untreated control (100%), and significant differences from this value are denoted with * (P<0.05) or ** (P<0.001).

C[C@H](CCCC(C)(C)O)[C@H]1CC[C@H]2[C@@H]3CC=C4C[C@@H](O)CC[C@]4(C)[C@H]3CC[C@]12C [25-HC, 25-hydroxycholesterol]
decrease in liposome uptake: 69%

C=C(CC[C@]12O[C@H](C(=O)O)[C@@](O)(C(=O)O)[C@](C(=O)O)(O1)[C@H](OC(=O)/C=C/[C@@H](C)C[C@@H](C)CC)[C@H]2O)[C@@H](OC(C)=O)[C@H](C)Cc1ccccc1 [SQ, squalestatin]
liposome uptake, in relation to the untreated control (100%): 117%
